Measurements reported in ChEMBL document CHEMBL6114943, “Engineered Cyclotide Blocks Neuronal Excitotoxicity” (J Med Chem, 2025).
Each block holds one compound with its values, some of them ahead of it. Calls of active or inactive are those of the source. The calls are words filed in the database; no cut-off is given here. Where a SMILES comes first, the peptide text is derived from it. Bridges are numbered along the chain shown (N, C = ends).

Key:
[1] = Stability in C57BL/6 mouse plasma assessed as parent compound remaining at 100 uM measured after 5 hrs by HPLC analysis relative to control; assay type: ADME, cell-free; conditions: read-out: Stability
[2] = Stability in C57BL/6 mouse plasma assessed as half life at 100 uM incubated for 300 min by HPLC analysis; assay type: ADME, cell-free
[3] = Stability in C57BL/6 mouse plasma assessed as drug degradation at 100 uM measured < 15 mins in presence of alteplase by HPLC analysis; assay type: ADME, cell-free; conditions: 0.25 h
[4] = Stability in C57BL/6 mouse plasma assessed as drug degradation by measuring parent compound remaining at 100 uM measured after 5 hrs by HPLC analysis relative to control; assay type: ADME, cell-free; conditions: read-out: Stability
[5] = Stability in C57BL/6 mouse plasma assessed as drug degradation at 100 uM measured after 5 hrs in presence of alteplase by HPLC analysis; assay type: ADME, cell-free
[6] = Stability in C57BL/6 mouse plasma assessed as parent compound remaining at 100 uM measured after 24 hrs by HPLC analysis; assay type: ADME, cell-free; conditions: read-out: Stability
[7] = Stability in C57BL/6 mouse plasma assessed as drug degradation by measuring parent compound remaining at 100 uM measured after 5 hrs in presence of alteplase by HPLC analysis relative to control; assay type: ADME, cell-free; conditions: read-out: Stability
[8] = Stability in C57BL/6 mouse plasma assessed as parent compound remaining at 100 uM measured after 24 hrs in presence of alteplase by HPLC analysis relative to control; assay type: ADME, cell-free; conditions: read-out: Stability
Mus musculus [9] = assay: Neuroprotective activity against pilocarpine-induced seizure in C57BL6 mouse assessed as survival rate at 3 nmol/g, iv pretreated with compound for 1 hrs followed by pilocarpine induction and measured after 2 hrs relative to control; assay type: functional; conditions: time 3 hrs
Neuron [10] = assay: Cytotoxicity against mouse primary neuron upto 1 uM incubated for 24 hrs; assay type: toxicity, cell-based
Neuron [11] = assay: Neuroprotective activity against NMDA-induced cell death in mouse primary neuron assessed as reduction in cell viability preincubated with compound for 1 hrs followed by NMDA addition and measured after 1 hrs by PI staining based analysis relative to control; assay type: functional; conditions: time 2.0 hrs
[12] = Drug uptake in mouse Primary neuron at 500 nM incubated for 60 mins by inverted confocal microscopic analysis relative to control; assay type: ADME, cell-based; conditions: 1 h, 0.5 µM
[13] = Drug uptake in mouse Primary neuron at 100 nM incubated for 60 mins by inverted confocal microscopic analysis relative to control; assay type: ADME, cell-based; conditions: 1 h, 0.1 µM
[14] = Drug uptake in mouse Primary neuron at 100 nM measured at 60 mins by inverted confocal microscopic analysis; assay type: ADME, cell-based; conditions: 1 h, 0.1 µM
Neuron [15] = assay: Neuroprotective activity against Amyloid beta-induced cell death in mouse primary neuron assessed as cell viability preincubated with compound for 1 hrs followed by Amyloid beta addition and measured after 1 hrs by PI staining based analysis relative to control; assay type: functional; conditions: time 2 hrs
Neuron [16] = assay: Neuroprotective activity against NMDA-induced cell death in mouse primary neuron assessed as cell viability preincubated with compound for 1 hrs followed by NMDA addition and measured after 1 hrs by PI staining based analysis relative to control; assay type: functional; conditions: time 2 hrs
[17] = Toxicity in C57BL/6 mouse assessed as histological changes in liver at 3 nmol/g, iv administered 3 consecutive days by H and E staining based analysis; assay type: organism-based; conditions: in vivo
[18] = Toxicity in C57BL/6 mouse assessed as histological changes in lung at 3 nmol/g, iv administered 3 consecutive days by H and E staining based analysis; assay type: organism-based; conditions: in vivo
[19] = Toxicity in C57BL/6 mouse assessed as histological changes in spleen at 3 nmol/g, iv administered 3 consecutive days by H and E staining based analysis; assay type: organism-based; conditions: in vivo
[20] = Toxicity in C57BL/6 mouse assessed as histological changes in kidney at 3 nmol/g, iv administered 3 consecutive days by H and E staining based analysis; assay type: organism-based; conditions: in vivo
Disks large homolog 4 = Disks large homolog 4 (Homo sapiens, UniProt P78352); assay: Binding affinity to PSD-95 (unknown origin) assessed as binding constant (Kd) by MST analysis
Neuron [21] = assay: Neuroprotective activity against Amyloid beta-induced cell death in mouse primary neuron assessed as cell viability at 100 nM preincubated with compound for 1 hrs followed by Amyloid beta addition and measured after 1 hrs by PI staining based analysis; assay type: functional; conditions: time 2.0 hrs
Mus musculus [22] = assay: Neuroprotective activity against pilocarpine-induced seizure in C57BL6 mouse assessed as survival rate at 30 nmol/g, po pretreated with compound for 1 hrs followed by pilocarpine induction and measured after 2 hrs relative to control; assay type: functional; conditions: time 3 hrs
Neuron [23] = assay: Neuroprotective activity against NMDA-induced cell death in mouse primary neuron assessed as reduction in cell viability at 100 nM preincubated with compound for 1 hrs followed by NMDA addition and measured after 1 hrs by PI staining based analysis (reference value: 60.01 +/- 4%); assay type: functional; conditions: time 2 hrs

Sequence of Disks large homolog 4 (P78352 whole entry): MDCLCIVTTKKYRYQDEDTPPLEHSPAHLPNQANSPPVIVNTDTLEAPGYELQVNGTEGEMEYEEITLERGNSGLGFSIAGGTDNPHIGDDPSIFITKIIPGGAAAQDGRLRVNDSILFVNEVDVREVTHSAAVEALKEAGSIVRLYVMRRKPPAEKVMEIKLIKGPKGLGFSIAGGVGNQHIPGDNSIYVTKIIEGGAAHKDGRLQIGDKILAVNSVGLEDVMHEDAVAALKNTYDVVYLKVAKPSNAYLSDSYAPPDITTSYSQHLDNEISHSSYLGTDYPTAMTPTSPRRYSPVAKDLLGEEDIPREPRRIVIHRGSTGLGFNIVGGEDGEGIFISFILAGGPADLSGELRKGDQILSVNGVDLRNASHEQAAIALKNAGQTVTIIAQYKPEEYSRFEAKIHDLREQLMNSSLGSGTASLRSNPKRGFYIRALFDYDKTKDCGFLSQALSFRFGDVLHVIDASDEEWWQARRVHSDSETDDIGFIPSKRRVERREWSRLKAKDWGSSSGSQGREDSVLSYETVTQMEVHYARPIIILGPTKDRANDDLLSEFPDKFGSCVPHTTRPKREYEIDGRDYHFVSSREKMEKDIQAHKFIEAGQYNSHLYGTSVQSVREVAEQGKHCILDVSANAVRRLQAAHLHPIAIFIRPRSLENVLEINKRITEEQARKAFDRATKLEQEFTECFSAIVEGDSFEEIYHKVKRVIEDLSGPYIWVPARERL

remaining at 5 h, 100 µM [1]: 9%
half-life at 100 µM [2]: ~45 min
Stability [3]: Unstable
SMILES: CC[C@H](C)[C@H](NC(=O)[C@H](CO)NC(=O)[C@H](CO)NC(=O)[C@H](CC(C)C)NC(=O)[C@H](CCCCN)NC(=O)[C@H](CCCNC(=N)N)NC(=O)[C@H](CCCNC(=N)N)NC(=O)[C@H](CCCNC(=N)N)NC(=O)[C@H](CCC(N)=O)NC(=O)[C@H](CCCNC(=N)N)NC(=O)[C@H](CCCNC(=N)N)NC(=O)[C@H](CCCCN)NC(=O)[C@H](CCCCN)NC(=O)[C@H](CCCNC(=N)N)NC(=O)CNC(=O)[C@H](Cc1ccc(O)cc1)NC(=O)c1ccc(C(=O)[O-])cc1-c1c2ccc(=[N+](C)C)cc-2oc2cc(N(C)C)ccc12)C(=O)N[C@@H](CCC(=O)O)C(=O)N[C@@H](CO)C(=O)N[C@@H](CC(=O)O)C(=O)N[C@H](C(=O)O)C(C)C

remaining at 5 h, 100 µM [4]: 85%
Stability [5]: Unstable
remaining at 24 h, 100 µM [6]: 80%
remaining at 5 h, 100 µM [7]: 82%
remaining at 24 h, 100 µM [8]: 80%
SMILES: CC[C@@H](C)[C@@H](NC(=O)[C@@H](CO)NC(=O)[C@@H](CO)NC(=O)[C@@H](CC(C)C)NC(=O)[C@@H](CCCCN)NC(=O)[C@@H](CCCNC(=N)N)NC(=O)[C@@H](CCCNC(=N)N)NC(=O)[C@@H](CCCNC(=N)N)NC(=O)[C@@H](CCC(N)=O)NC(=O)[C@@H](CCCNC(=N)N)NC(=O)[C@@H](CCCNC(=N)N)NC(=O)[C@@H](CCCCN)NC(=O)[C@@H](CCCCN)NC(=O)[C@@H](CCCNC(=N)N)NC(=O)CNC(=O)[C@@H](Cc1ccc(O)cc1)NC(=O)c1ccc(C(=O)[O-])cc1-c1c2ccc(=[N+](C)C)cc-2oc2cc(N(C)C)ccc12)C(=O)N[C@H](CCC(=O)O)C(=O)N[C@H](CO)C(=O)N[C@H](CC(=O)O)C(=O)N[C@@H](C(=O)O)C(C)C

SMILES: CC[C@H](C)[C@@H]1NC(=O)[C@H](CO)NC(=O)[C@H](CO)NC(=O)[C@H](CC(C)C)NC(=O)[C@H](CCCCN)NC(=O)[C@@H]2CSSC[C@@H]3NC(=O)[C@H](CC(=O)O)NC(=O)[C@H](CO)NC(=O)[C@H](CC(=O)O)NC(=O)[C@H](CCCNC(=N)N)NC(=O)[C@H](CCCNC(=N)N)NC(=O)[C@@H]4CSSC[C@H](NC(=O)[C@H]([C@@H](C)CC)NC(=O)[C@H](CSSC[C@H](NC(=O)[C@H](C)NC(=O)[C@H](CC(=O)O)NC(=O)[C@H](C)NC(=O)[C@H](CCC(=O)O)NC1=O)C(=O)N1CCC[C@H]1C(=O)N[C@@H](CCCNC(=N)N)C(=O)N[C@@H]([C@@H](C)CC)C(=O)N[C@@H](CC(C)C)C(=O)N[C@@H](CCCNC(=N)N)C(=O)N[C@@H](CCCNC(=N)N)C(=O)N[C@@H](CCCNC(=N)N)C(=O)N[C@@H](CCCNC(=N)N)C(=O)N4)NC(=O)[C@H](C)NC(=O)CNC(=O)[C@@H]1CCCN1C3=O)C(=O)N[C@@H](CCCNC(=N)N)C(=O)NCC(=O)N[C@@H](CC(N)=O)C(=O)NCC(=O)N[C@@H](Cc1ccc(O)cc1)C(=O)N2 (cyclo(ACICRGNGYCKLSSIEADACPRILRRRRCRRDSDCPG); disulfide 2-20, 4-29, 10-35)
Survival (Mus musculus [9]): 30%
Activity (Neuron [10]): Non-toxic
Activity (Neuron [11]): inactive

Drug uptake [12]: 70.6%
Drug uptake [13]: Not_active
Drug uptake [14]: Active
SMILES: CC[C@H](C)[C@@H]1NC(=O)[C@@H]2CSSC[C@@H]3NC(=O)[C@H](C(C)C)NC(=O)[C@H](CC(=O)O)NC(=O)[C@H](CO)NC(=O)[C@H](CCC(=O)O)NC(=O)[C@H]([C@@H](C)CC)NC(=O)[C@H](CO)NC(=O)[C@H](CO)NC(=O)[C@H](CC(C)C)NC(=O)[C@H](CCCCN)NC(=O)[C@@H]4CSSC[C@H](NC(=O)[C@H](CC(=O)O)NC(=O)[C@H](CO)NC(=O)[C@H](CC(=O)O)NC(=O)[C@H](CCCNC(=N)N)NC(=O)[C@H](CCCNC(=N)N)NC(=O)[C@H](CSSC[C@H](NC1=O)C(=O)N[C@@H](CCCNC(=N)N)C(=O)NCC(=O)N[C@@H](CC(N)=O)C(=O)NCC(=O)N[C@@H](Cc1ccc(O)cc1)C(=O)N4)NC(=O)[C@H](CCCCN)NC(=O)[C@H](CCCCN)NC(=O)[C@H](CC(C)C)NC(=O)[C@H]([C@@H](C)CC)NC(=O)[C@H](CCCCN)NC(=O)[C@@H]1CCCN1C3=O)C(=O)N1CCC[C@H]1C(=O)NCC(=O)N[C@@H](C)C(=O)N2 (cyclo(ACICRGNGYCKLSSIESDVCPKILKKCRRDSDCPG); disulfide 2-20, 4-27, 10-33) [listing 1 of 2 here]
Activity (Neuron [10]): Non-toxic

SMILES: CC[C@H](C)[C@@H]1NC(=O)[C@@H]2CSSC[C@@H]3NC(=O)[C@H](C(C)C)NC(=O)[C@H](CC(=O)O)NC(=O)[C@H](CO)NC(=O)[C@H](CCC(=O)O)NC(=O)[C@H]([C@@H](C)CC)NC(=O)[C@H](CO)NC(=O)[C@H](CO)NC(=O)[C@H](CC(C)C)NC(=O)[C@H](CCCCN)NC(=O)[C@@H]4CSSC[C@H](NC(=O)[C@H](CC(=O)O)NC(=O)[C@H](CO)NC(=O)[C@H](CC(=O)O)NC(=O)[C@H](CCCNC(=N)N)NC(=O)[C@H](CCCNC(=N)N)NC(=O)[C@H](CSSC[C@H](NC1=O)C(=O)N[C@@H](CCCNC(=N)N)C(=O)NCC(=O)N[C@@H](CC(N)=O)C(=O)NCC(=O)N[C@@H](Cc1ccc(O)cc1)C(=O)N4)NC(=O)[C@H](CCCCN)NC(=O)[C@H](CCCCN)NC(=O)[C@H](CC(C)C)NC(=O)[C@H]([C@@H](C)CC)NC(=O)[C@H](CCCCN)NC(=O)[C@@H]1CCCN1C3=O)C(=O)N1CCC[C@H]1C(=O)NCC(=O)N[C@@H](C)C(=O)N2 (cyclo(ACICRGNGYCKLSSIESDVCPKILKKCRRDSDCPG); disulfide 2-20, 4-27, 10-33) [listing 2 of 2 here]
Activity (Neuron [15]): 32.6%
Activity (Neuron [16]): 31.8%

Kd (Disks large homolog 4): 1.2 µM
SMILES: CC[C@H](C)[C@H](NC(=O)[C@H](CO)NC(=O)[C@H](CO)NC(=O)[C@H](CC(C)C)NC(=O)[C@H](CCCCN)NC(=O)[C@H](CCCN=C(N)N)NC(=O)[C@H](CCCN=C(N)N)NC(=O)[C@H](CCCN=C(N)N)NC(=O)[C@H](CCC(N)=O)NC(=O)[C@H](CCCN=C(N)N)NC(=O)[C@H](CCCN=C(N)N)NC(=O)[C@H](CCCCN)NC(=O)[C@H](CCCCN)NC(=O)[C@H](CCCN=C(N)N)NC(=O)CNC(=O)[C@@H](N)Cc1ccc(O)cc1)C(=O)N[C@@H](CCC(=O)O)C(=O)N[C@@H](CO)C(=O)N[C@@H](CC(=O)O)C(=O)N[C@H](C(=O)O)C(C)C [NERINETIDE]
Activity [17]: Non-toxic
Activity [18]: Non-toxic
Activity [19]: Non-toxic
Activity [20]: Non-toxic
Activity (Neuron [10]): Non-toxic

SMILES: CC[C@H](C)[C@H](NC(=O)[C@H](CO)NC(=O)[C@H](CO)NC(=O)[C@H](CC(C)C)NC(=O)[C@H](CCCCN)NC(=O)[C@H](CCCNC(=N)N)NC(=O)[C@H](CCCNC(=N)N)NC(=O)[C@H](CCCNC(=N)N)NC(=O)[C@H](CCC(N)=O)NC(=O)[C@H](CCCNC(=N)N)NC(=O)[C@H](CCCNC(=N)N)NC(=O)[C@H](CCCCN)NC(=O)[C@H](CCCCN)NC(=O)[C@H](CCCNC(=N)N)NC(=O)CNC(=O)[C@@H](N)Cc1ccc(O)cc1)C(=O)N[C@@H](CCC(=O)O)C(=O)N[C@@H](CO)C(=O)N[C@@H](CC(=O)O)C(=O)N[C@H](C(=O)O)C(C)C [NERINETIDE]
Activity (Neuron [21]): Active
Survival (Mus musculus [9]): 85%
Survival (Mus musculus [22]): 50%
Activity (Neuron [23]): 13.12%
